Data as given in ChEMBL document CHEMBL2321673, “Critical role of a methyl group on the γ-lactone ring of annonaceous acetogenins in the potent inhibition of mitochondrial complex I” (Bioorg Med Chem Lett, 2013).

target: NADH-ubiquinone oxidoreductase chain 1 (Bos taurus, UniProt P03887); assay: Inhibition of bovine heart mitochondrial complex 1
Sequence (P03887 whole entry): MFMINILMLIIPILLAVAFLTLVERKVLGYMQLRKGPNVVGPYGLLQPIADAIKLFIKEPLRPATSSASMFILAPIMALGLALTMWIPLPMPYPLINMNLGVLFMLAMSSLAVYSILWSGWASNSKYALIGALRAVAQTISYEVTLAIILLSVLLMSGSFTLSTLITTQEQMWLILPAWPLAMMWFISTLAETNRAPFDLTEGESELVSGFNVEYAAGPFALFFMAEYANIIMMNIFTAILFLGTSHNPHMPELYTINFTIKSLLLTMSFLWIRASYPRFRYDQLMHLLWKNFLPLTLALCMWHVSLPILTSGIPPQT

SMILES	IC50 [µM]
CCCCCCCCCCCC[C@@H](O)[C@H]1CC[C@H]([C@H](O)CCCCCCCCCCCCC2=C[C@H](C)OC2=O)O1 [REL-SOLAMIN]	0.0021
CCCCCCCCCCCC[C@@H](O)[C@H]1CC[C@H]([C@H](O)CCCCCCCCCCCCC2=C[C@H](C(F)F)OC2=O)O1	0.031
CCCCCCCCCCCC[C@@H](O)[C@H]1CC[C@H]([C@H](O)CCCCCCCCCCCCC2=C[C@@H](C(F)(F)F)OC2=O)O1	0.57
CCCCCCCCCCCC[C@@H](O)[C@H]1CC[C@H]([C@H](O)CCCCCCCCCCCCC2=C[C@H](C(F)(F)F)OC2=O)O1	0.31
CCCCCCCCCCCC[C@@H](O)[C@H]1CC[C@H]([C@H](O)CCCCCCCCCCCCC2=C[C@H](CF)OC2=O)O1	0.0029
CCCCCCCCCCCC[C@@H](O)[C@H]1CC[C@H]([C@H](O)CCCCCCCCCCCCC2=C[C@@H](C)OC2=O)O1	0.27
